Data reported in patent US8314234B2, “Bicyclic pyrimidine kinase inhibitors” (Janssen Pharmaceutica N.V., priority 2006, dated 2012).

Experiments:
EGFR = target: T1, EGFR (Homo sapiens, UniProt P00533); test: EGFR Kinase Assay; assay type: biochemical; conditions: test concentration of 2 μM
T1 construct: intracellular portion of EGFR started at nucleotide 2189 (corresponding to amino acid 667) and ended at the termination codon; made in house; host or cells: Sf9 insect cells (baculovirus)
Text: The EGFR kinase used was a fusion of Glutathione-S-Transferase (GST) and a PCR amplified intracellular portion of EGFR (NM_005228). The intracellular portion of EGFR started at nucleotide 2189 (corresponding to amino acid 667) and ended at the termination codon. The portion was PCR amplified with primers that added the lambda attB sequences to each end, recombined into an entry vector, then into a GST destination vector (as described in Gateway Technologies Manual by Invitrogen Corporation, Carlsbad, Calif.).
The destination vector was recombined in the DH10BAC strain of bacteria to produce a bacmid. The bacmid was transfected into Sf9 cells and the supernatant containing the baculovirus was collected. The GSTEGFR protein was purified using large cultures of Sf9 cells infected with stock virus. After an appropriate period of time, the cells were collected and lysed. The GSTEGFR was then purified from the lysate on Glutathione-Sepharose columns (as described by Amersham Biosciences, Buckinghamshire, United Kingdom).
The EGFR substrate was prepared by biotinylating polyGluTyr (128 mg) (Sigma, St. Louis, Mo.) in a 1×PBS buffer incubated together with a 12-fold molar excess of Sulfo-NHS-LC-Biotin on ice for at least 2 hrs. The free biotin was separated from the biotinylated polyGluTyr on a gel filtration column.
A mixture of a 10× kinase buffer (500 mM Tris at pH 8.0, 100 mM Magnesium Chloride and 1 mM Sodium Vanadate), DTT (1 mM final from 500 mM stock), ATP (5 μM final from 10 mM stock), biotinylated polyGluTyr (10 μg/μL stock), γ-^33P ATP (10 μCi/μL stock) and water was added to each well (90 μL/well) of a Streptavidin Flashplate (Perkin Elmer, Wellesley, Mass.).
Test compound in 100% DMSO (2 μL) was added to the appropriate wells. Diluted GSTEGFR (1:300 dilution in 50 mM Tris at pH 8.0 and 0.1% bovine serum albumin) (10 μL) was added to the wells to initiate the reactions.
The plates were incubated at 30° C. for 1 hr with shaking. The reacted contents were removed and the plates were sequentially washed three times with a 1×PBS stop buffer (300 μL without Magnesium and Calcium) and 100 mM EDTA. After the final wash, the same stop buffer (200 μL) was added to the wells. The plates were then sealed and read on the TopCount scintillation counter.
Test compounds were assayed in triplicate at 16 concentrations at half-log dilutions starting at 200 uM. A maximum and minimum signal for the assay was determined on each plate. The percent inhibition of a test compound was calculated according to the formula
For a series of test concentrations, the IC50 was derived by graphing percent inhibition against the log of the concentrations tested for a given compound. The percent inhibition results are shown in Table 1 at a test concentration of 2 μM. For those compounds with an IC50, the IC50 value is shown in parentheses.

CDK1 = target: T2, CDK1 (Homo sapiens, UniProt P06493); test: CDK-1 screening assay; assay type: biochemical
T2 construct: purchased New England Biolabs, Beverly, Mass; 6020; host or cells: insect cells
Experimental: (§1) 70 μL of the kinase reaction mixture was dispensed into the well of a streptavidin coated FlashPlate™ (Cat. #SMP103, NEN, Boston, Mass.).
(§2) Test compound stock in 100% DMSO (1 μL) was added to the wells resulting in a final concentration of 1% DMSO in the reaction with a 100 μL final reaction volume. Each enzyme was diluted in 50 mM Tris-HCl pH=8.0, 0.1% BSA and 30 μL was added to each well to initiate the reaction. The reaction was incubated for one hour at 30° C. At the end of the 1 hr incubation, the reaction was terminated by aspirating the mixture from the plate and washing the wells twice with PBS containing 100 mM EDTA. The biotinylated peptide substrate became immobilized on the Flashplate and the incorporation of ^33P-γ-ATP was measured by reading the plate on a scintillation counter. Inhibition of the enzymatic activity was measured by observing a reduced amount of ^33P-γ-ATP incorporated into the immobilized peptide.
(§3) A maximum and minimum signal for the assay was determined on each plate. The percent inhibition of a test compound was calculated according to the formula: […]
(§4) The term “ND” means “not determined.”

CDK2 = target: T3, CDK2 (Homo sapiens, UniProt P24941); test: CDK-2 screening assay; assay type: biochemical
T3 construct: purchased Upstate Biotech, Lake Placid, N.Y
Experimental: as §1, §2
The CDK2 enzyme in complex with cyclin A is commercially available (Upstate Biotech, Lake Placid, N.Y.).
as §3, §4

VEGFR2 = VEGFR2 (Rattus norvegicus, UniProt O08775); test: VEGFR2 screening assay; assay type: biochemical
Experimental: A kinase reaction mixture was prepared containing 50 mM Tris-HCl pH=8, 10 mM MgCl2, 0.1 mM […], 1 mM DTT, 10 μM ATP, 0.025 μM biotinylated histone-H1 peptide substrate and 0.2 μCuries per well ^33P-γ-ATP (2000-3000 Ci/mmol). 70 μL of the kinase reaction mixture was dispensed into the well of a streptavidin coated FlashPlate™ (Cat. #SMP103, NEN, Boston, Mass.).
as §2
The VEGF-R2 enzyme is a fusion protein containing a polyhistidine tag at the N terminus followed by amino acids 786 to 1343 of the rat VEGF-R2 kinase domain (Accession number U93306). The assay used 150 ng of the N-terminal biotinylated peptide biotin-[…]-amide SEQ ID NO: 2) (VEGF-R2) per well.
as §3
For a series of test concentrations, the IC50 was derived by graphing percent inhibition against the log of the concentrations tested for a given compound with results shown in Table 2. For those compounds without an IC50, the inhibition values in percent are shown at a test concentration of 2 μM. The term “ND” means “not determined.”

[1] = test system: HeLa cervical adenocarcinoma; test: Cell Proliferation Inhibition Assay (14C-thymidine incorporation), HeLa; assay type: cell-based; conditions: Homo sapiens
Text: (§5) The ability of a test compound to inhibit unregulated cell proliferation may be determined by measuring incorporation of ^14C-labelled thymidine into newly synthesized DNA within cell lines derived from carcinomas originating from several tissues. Accordingly, the anti-proliferative effect of a compound on cells with a variety of phenotypes may be determined.
(§6) Carcinoma cell lines include those such as HeLa cervical adenocarcinoma (American Type Culture Collection (ATCC), Virginia, Cat. #CCL-2), A375 malignant melanoma (ATCC CRL-1619), SK-OV-3 ovarian adenocarcinoma (ATCC HTB-77), HCT-116 colon carcinoma (CCL-247), PC-3 prostate adenocarcinoma (ATCC CRL-1435), and MDA-MB-231 (Xenogen Corp.)
(§7) The carcinoma cells are trypsinized and counted. The cells (3000-8000 count) are added to each well of a 96-well CytoStar tissue culture treated scintillating microplate (Amersham #RPNQ0160) in complete medium (100 μL) and the plate is then incubated in complete medium for 24 hrs at 37° C. in an inert atmosphere containing 5% CO2. Test compound (1 μL) in 100% DMSO is added to the plate test-wells with DMSO only added to control-wells. The plate is incubated in complete medium for a second 24 hr period at 37° C. in an atmosphere containing 5% CO2.
(§8) An aliquot of a solution of Methyl ^14C-thymidine (56 mC/mmol) (NEN #NEC568 or Amersham #CFA532) and complete medium (20 uL to provide 0.2 μCi/well) is then added to each well and the plate is incubated for a third 24 hr period at 37° C. in an atmosphere containing 5% CO2. The plate contents are then discarded, the plate is washed twice with PBS (200 μL) and then PBS (200 μL) is added to each well. The plate is sealed and the degree of methyl ^14C-thymidine incorporation is quantified on a Packard Top Count.

HCT-116 colon carcinoma = test: Cell Proliferation Inhibition Assay (14C-thymidine incorporation), HCT-116; assay type: cell-based; conditions: Homo sapiens
Text: as §5, §6, §7, §8

A375 malignant melanoma = test: Cell Proliferation Inhibition Assay (14C-thymidine incorporation), A375; assay type: cell-based; conditions: Homo sapiens, A-375
Text: as §5, §6, §7, §8

VEGFR2, sequence (O08775 786-1343): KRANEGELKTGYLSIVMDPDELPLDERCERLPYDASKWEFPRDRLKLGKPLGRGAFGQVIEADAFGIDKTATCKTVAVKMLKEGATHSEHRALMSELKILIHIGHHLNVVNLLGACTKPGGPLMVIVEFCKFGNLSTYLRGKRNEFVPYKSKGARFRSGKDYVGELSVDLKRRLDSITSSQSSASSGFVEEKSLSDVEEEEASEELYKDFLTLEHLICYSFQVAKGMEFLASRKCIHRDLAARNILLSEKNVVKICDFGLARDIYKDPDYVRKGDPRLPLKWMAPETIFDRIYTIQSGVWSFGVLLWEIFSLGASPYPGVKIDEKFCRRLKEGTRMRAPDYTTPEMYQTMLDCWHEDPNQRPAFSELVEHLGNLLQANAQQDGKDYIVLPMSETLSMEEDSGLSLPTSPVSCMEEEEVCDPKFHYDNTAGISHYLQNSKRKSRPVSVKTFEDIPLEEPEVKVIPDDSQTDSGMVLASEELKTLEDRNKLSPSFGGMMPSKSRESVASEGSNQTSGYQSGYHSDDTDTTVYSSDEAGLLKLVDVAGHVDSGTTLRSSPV
T2 sequence (P06493 whole entry): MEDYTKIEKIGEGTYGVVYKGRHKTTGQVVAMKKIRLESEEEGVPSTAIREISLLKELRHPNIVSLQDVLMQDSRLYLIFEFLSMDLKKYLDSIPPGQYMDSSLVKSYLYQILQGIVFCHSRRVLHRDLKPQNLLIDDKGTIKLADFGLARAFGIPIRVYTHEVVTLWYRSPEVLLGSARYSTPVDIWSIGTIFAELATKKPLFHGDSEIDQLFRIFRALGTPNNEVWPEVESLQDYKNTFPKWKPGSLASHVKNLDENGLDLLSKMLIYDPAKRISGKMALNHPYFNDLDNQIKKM
T2 sequence (P14635 whole entry partner): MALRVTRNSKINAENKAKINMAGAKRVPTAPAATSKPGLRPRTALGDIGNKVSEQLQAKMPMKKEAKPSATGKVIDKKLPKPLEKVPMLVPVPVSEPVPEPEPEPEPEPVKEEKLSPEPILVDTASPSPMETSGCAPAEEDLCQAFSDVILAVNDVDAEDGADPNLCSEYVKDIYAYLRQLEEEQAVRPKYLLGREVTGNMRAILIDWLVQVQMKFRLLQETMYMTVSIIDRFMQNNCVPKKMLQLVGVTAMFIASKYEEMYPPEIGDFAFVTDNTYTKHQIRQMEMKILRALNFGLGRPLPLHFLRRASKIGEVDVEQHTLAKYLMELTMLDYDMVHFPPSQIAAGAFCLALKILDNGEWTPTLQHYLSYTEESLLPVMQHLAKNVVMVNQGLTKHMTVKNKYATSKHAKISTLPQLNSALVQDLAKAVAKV
T1 sequence (P00533 669-1210 limits assumed): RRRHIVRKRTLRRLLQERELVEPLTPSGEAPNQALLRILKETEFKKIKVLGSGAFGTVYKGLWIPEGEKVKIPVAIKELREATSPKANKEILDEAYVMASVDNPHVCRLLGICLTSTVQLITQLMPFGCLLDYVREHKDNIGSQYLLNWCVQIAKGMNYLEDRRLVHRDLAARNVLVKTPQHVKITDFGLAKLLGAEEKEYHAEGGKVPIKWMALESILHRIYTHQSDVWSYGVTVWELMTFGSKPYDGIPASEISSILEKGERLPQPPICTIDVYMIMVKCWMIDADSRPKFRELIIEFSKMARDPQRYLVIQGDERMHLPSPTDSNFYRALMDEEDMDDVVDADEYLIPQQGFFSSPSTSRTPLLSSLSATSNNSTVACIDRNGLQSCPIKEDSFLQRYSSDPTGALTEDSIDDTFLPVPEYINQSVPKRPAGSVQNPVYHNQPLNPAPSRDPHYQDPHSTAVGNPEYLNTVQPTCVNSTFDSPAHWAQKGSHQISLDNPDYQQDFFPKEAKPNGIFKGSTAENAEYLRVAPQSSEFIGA

Row | Compound | inhibition at 2 µM (EGFR) [%] | IC50 (CDK1) [µM] | IC50 (CDK2) [µM] | IC50 (VEGFR2) [µM] | IC50 [1] [µM] | IC50 (HCT-116 colon carcinoma) [µM] | IC50 (A375 malignant melanoma) [µM]
1 | O=S(=O)(NCCO)c1ccc(Nc2nc(Nc3ccc(S(=O)(=O)NCCO)cc3)c3cn[nH]c3n2)cc1 [Cpd 3, N^4,N^6-bis-{4-[(2-hydroxy-ethyl)-amino-sulfonyl]-phenyl}-1H-pyrazolo[3,4-d]pyrimidine-4,6-diamine] | 78 | 0.079 | 0.018 | 0.328 | 10 | 100 | 32.6
2 | NS(=O)(=O)c1ccc(Nc2nc(Nc3ccc(S(N)(=O)=O)cc3)c3cnoc3n2)cc1 [Cpd 5, N^4,N^6-bis-[4-(amino-sulfonyl)-phenyl]-isoxazolo[5,4-d]pyrimidine-4,6-diamine] | 39 | 2.53 | 0.443 | 2.45 | 70.7 | 38.2 | 27
3 | c1cc2[nH]ncc2cc1Nc1nc(Nc2ccc3[nH]ncc3c2)c2cn[nH]c2n1 [Cpd 9, N^4,N^6-bis-(1H-indazol-5-yl)-1H-pyrazolo[3,4-d]pyrimidine-4,6-diamine] | 47 | 0.145 | 0.04 | 0.43 | 100 | 100 | 100
4 | c1cc2cc(Nc3nc(Nc4ccc5[nH]ccc5c4)c4cn[nH]c4n3)ccc2[nH]1 [Cpd 13, N^4,N^6-bis-(1H-indol-5-yl)-1H-pyrazolo[3,4-d]pyrimidine-4,6-diamine] | -4 | 2.59 | 0.494 | 3.67 | 4 | 2.6 | 1.9
5 | O=S(=O)(NCCO)c1ccc(Nc2nc(Nc3ccc(S(=O)(=O)NCCO)cc3)c3cnn(C4CCCCC4)c3n2)cc1 [Cpd 17, 1-cyclohexyl-N^4,N^6-bis-{4-[(2-hydroxy-ethyl)-amino-sulfonyl]-phenyl}-1H-pyrazolo[3,4-d]pyrimidine-4,6-diamine] | 22 | 12 | 3.88 | 90 | 100 | 100 | 100
6 | CC(C)(C)n1ncc2c(Nc3ccc(S(=O)(=O)NCCO)cc3)nc(Nc3ccc(S(=O)(=O)NCCO)cc3)nc21 [Cpd 18, 1-t-butyl-N^4,N^6-bis-{4-[(2-hydroxy-ethyl)-amino-sulfonyl]-phenyl}-1H-pyrazolo[3,4-d]pyrimidine-4,6-diamine] | 23 | 2.79 | 0.493 | > 100 | 100 | 100 | 1.2
7 | O=S(=O)(NCCO)c1ccc(Nc2nc(Nc3ccc(S(=O)(=O)NCCO)cc3)c3cnoc3n2)cc1 [Cpd 19, N^4,N^6-bis-{4-[(2-hydroxy-ethyl)-amino-sulfonyl]-phenyl}-isoxazolo[5,4-d]pyrimidine-4,6-diamine] | 12 | > 100 | 9.18 | 75 | 100 | 100 | 100

Now from value to molecule:

Row | inhibition at 2 µM (EGFR) [%] | IC50 (CDK1) [µM] | IC50 (CDK2) [µM] | IC50 (VEGFR2) [µM] | IC50 [1] [µM] | IC50 (HCT-116 colon carcinoma) [µM] | IC50 (A375 malignant melanoma) [µM] | Compound
8 | 21 | > 100 | > 10 | > 100 | 100 | 10 | 100 | NS(=O)(=O)c1ccc(Nc2nc(Nc3ccccn3)c3cnoc3n2)cc1 [Cpd 7, 4-[4-(pyridin-2-ylamino)-isoxazolo[5,4-d]pyrimidin-6-ylamino]-benzenesulfonamide]
9 | 25 | 24.7 | 7.62 | 6.98 | 100 | 100 | 100 | NS(=O)(=O)c1ccc(Nc2nc(Nc3ccccn3)c3cn[nH]c3n2)cc1 [Cpd 8, 4-[4-(pyridin-2-ylamino)-1H-pyrazolo[3,4-d]pyrimidin-6-ylamino]-benzenesulfonamide]
10 | 31 | 1.52 | 0.377 | 3.49 | 3.4 | 10 | 1 | O=S(=O)(NCCO)c1ccc(Nc2nc(Nc3ccc(C(F)(F)F)cc3)c3cn[nH]c3n2)cc1 [Cpd 10, N-(2-hydroxy-ethyl)-4-[4-(4-trifluoromethyl-phenylamino)-1H-pyrazolo[3,4-d]pyrimidin-6-ylamino]-benzenesulfonamide]
11 | 44 | 0.568 | 0.432 | 0.536 | 36 | 10 | 85.2 | NS(=O)(=O)c1ccc(Nc2nc(Nc3ccc4[nH]ncc4c3)nc3[nH]ncc23)cc1 [Cpd 12, 4-[6-(1H-indazol-5-ylamino)-1H-pyrazolo[3,4-d]pyrimidin-4-ylamino]-benzenesulfonamide]
